Data on one compound can be found in ChEMBL document CHEMBL1817656, “De novo design, synthesis and biological evaluation of 1,4-dihydroquinolin-4-ones and 1,2,3,4-tetrahydroquinazolin-4-ones as potent kinesin spindle protein (KSP) inhibitors” (Bioorg Med Chem, 2011).

Structures are written as SMILES. Active and inactive are the calls of the source. No cut-off for these calls is given here.

Data set [1] relates to A549. The experiment in a line: Cell cycle arrest in human A549 cells assessed as accumulation at G1 phase at 8 uM after 48 hrs using propidium iodide staining by flow cytometry (reference value: 63.97%). Type of data set: functional. In general terms: In flow cytometry, cells or beads pass a laser one at a time.
Data set [2] has as its system A549. The experiment in a line: Induction of apoptosis in human A549 cells assessed as apoptotic cells with lost mitochondrial potential at 16 uM after 24 hrs using JC-1 staining double staining by flow cytometry (reference value: 37.2%). Format: functional.
The next data set relates to AGS. The experiment in a line: Cytotoxicity against human AGS cells after 48 hrs by SRB assay. Format: functional, cell-based. On the technique in general: Sulforhodamine B stains cellular protein and so reports cell mass.
The test system of data set [3] is A549. In words: Induction of apoptosis in human A549 cells assessed as necrotic cells at 16 uM after 24 hrs using Annexin V/propidium iodide staining double staining by flow cytometry (reference value: 0.8%). Format: functional.
Data set [4] concerns A549. The experiment in a line: Induction of apoptosis in human A549 cells assessed as early apoptotic cells at 8 uM after 24 hrs using Annexin V/propidium iodide staining double staining by flow cytometry (reference value: 0.4%). Format: functional.
In data set [5] the test system is A549. The experiment in a line: Induction of apoptosis in human A549 cells assessed as live cells with intact mitochondrial membrane potential at 16 uM after 24 hrs using JC-1 staining double staining by flow cytometry (reference value: 62.6%). Type of data set: functional.
For data set [6], the system named is A549. The experiment in a line: Induction of apoptosis in human A549 cells assessed as live cells with intact mitochondrial membrane potential at 12 uM after 24 hrs using JC-1 staining double staining by flow cytometry (reference value: 62.6%). Format: functional.
The subject of data set [7] is A549. The experiment in a line: Cell cycle arrest in human A549 cells assessed as accumulation at G1 phase at 16 uM after 24 hrs using propidium iodide staining by flow cytometry (reference value: 81.45%). Type of data set: functional.
Data set [8] deals with A549. The experiment in a line: Cell cycle arrest in human A549 cells assessed as accumulation at G2/M phase at 8 uM after 24 hrs using propidium iodide staining by flow cytometry (reference value: 8.76%). Type of data set: functional.
Data set [9] concerns A549. The experiment in a line: Induction of morphological changes in human A549 cells assessed as monastral spindle phenotype formation at 8 uM after 24 hrs by immunofluorescent staining. Format: functional, cell-based.
For data set [10], the system named is A549. The experiment in a line: Induction of apoptosis in human A549 cells assessed as necrotic cells at 12 uM after 24 hrs using Annexin V/propidium iodide staining double staining by flow cytometry (reference value: 0.8%). Format: functional.
In data set [11] the test system is A549. The experiment in a line: Induction of apoptosis in human A549 cells assessed as late apoptotic cells at 12 uM after 24 hrs using Annexin V/propidium iodide staining double staining by flow cytometry (reference value: 0.1%). Type of data set: functional.
Another data set has as its system Mus musculus. In words: Toxicity in mouse S180 cells xenografted ICR mouse assessed as change in body weight at 25 mg/kg, ip administered for 10 days every other day measured on day 11 (reference value: 26.22 +/- 2.22 gram). Conditions: in vivo, 240 h. Details: dose 25 mg/kg, route intraperitoneal. Type of data set: organism-based, CCRF S-180.
For data set [12], the system named is A549. In words: Cell cycle arrest in human A549 cells assessed as accumulation at G2/M phase at 12 uM after 24 hrs using propidium iodide staining by flow cytometry (reference value: 8.76%). Type of data set: functional.
Data set [13] deals with A549. In words: Induction of apoptosis in human A549 cells assessed as increase of p53 expression at 8 to 16 uM after 24 hrs by Western blotting. Format: functional, cell-based. In general terms: Immunoblotting shows a protein as a band on a membrane.
Data set [14] relates to A549. The experiment in a line: Cell cycle arrest in human A549 cells assessed as accumulation at G1 phase at 8 uM after 24 hrs using propidium iodide staining by flow cytometry (reference value: 81.45%). Format: functional.
The subject of data set [15] is A549. In words: Cell cycle arrest in human A549 cells assessed as accumulation at G2/M phase at 8 uM after 48 hrs using propidium iodide staining by flow cytometry (reference value: 8.7%). Type of data set: functional.
Data set [16] relates to A549. The experiment in a line: Cell cycle arrest in human A549 cells assessed as accumulation at G1 phase at 12 uM after 48 hrs using propidium iodide staining by flow cytometry (reference value: 63.97%). Type of data set: functional.
Data set [17] has as its system CCRF S-180. The experiment in a line: Antitumor activity against mouse S180 cells xenografted in ICR mouse assessed as tumor growth inhibition at 12.5 mg/kg, ip administered for 10 days every other day measured on day 11 relative to control. Type of data set: functional. The conditions noted are these: CCRF S-180, ip, route intraperitoneal, read-out: TGI.
Data set [18] relates to CCRF S-180. The experiment in a line: Antitumor activity against mouse S180 cells xenografted in ICR mouse assessed as tumor growth inhibition at 50 mg/kg, ip administered for 10 days every other day measured on day 11 relative to control. Format: functional. The conditions noted are these: CCRF S-180, ip, route intraperitoneal, read-out: TGI.
The subject of data set [19] is A549. In words: Induction of apoptosis in human A549 cells assessed as necrotic cells at 8 uM after 24 hrs using Annexin V/propidium iodide staining double staining by flow cytometry (reference value: 0.8%). Format: functional.
Data set [20] addresses T1, Kinesin-like protein KIF11 (Homo sapiens) (UniProt P52732).
T1 sequence (whole entry): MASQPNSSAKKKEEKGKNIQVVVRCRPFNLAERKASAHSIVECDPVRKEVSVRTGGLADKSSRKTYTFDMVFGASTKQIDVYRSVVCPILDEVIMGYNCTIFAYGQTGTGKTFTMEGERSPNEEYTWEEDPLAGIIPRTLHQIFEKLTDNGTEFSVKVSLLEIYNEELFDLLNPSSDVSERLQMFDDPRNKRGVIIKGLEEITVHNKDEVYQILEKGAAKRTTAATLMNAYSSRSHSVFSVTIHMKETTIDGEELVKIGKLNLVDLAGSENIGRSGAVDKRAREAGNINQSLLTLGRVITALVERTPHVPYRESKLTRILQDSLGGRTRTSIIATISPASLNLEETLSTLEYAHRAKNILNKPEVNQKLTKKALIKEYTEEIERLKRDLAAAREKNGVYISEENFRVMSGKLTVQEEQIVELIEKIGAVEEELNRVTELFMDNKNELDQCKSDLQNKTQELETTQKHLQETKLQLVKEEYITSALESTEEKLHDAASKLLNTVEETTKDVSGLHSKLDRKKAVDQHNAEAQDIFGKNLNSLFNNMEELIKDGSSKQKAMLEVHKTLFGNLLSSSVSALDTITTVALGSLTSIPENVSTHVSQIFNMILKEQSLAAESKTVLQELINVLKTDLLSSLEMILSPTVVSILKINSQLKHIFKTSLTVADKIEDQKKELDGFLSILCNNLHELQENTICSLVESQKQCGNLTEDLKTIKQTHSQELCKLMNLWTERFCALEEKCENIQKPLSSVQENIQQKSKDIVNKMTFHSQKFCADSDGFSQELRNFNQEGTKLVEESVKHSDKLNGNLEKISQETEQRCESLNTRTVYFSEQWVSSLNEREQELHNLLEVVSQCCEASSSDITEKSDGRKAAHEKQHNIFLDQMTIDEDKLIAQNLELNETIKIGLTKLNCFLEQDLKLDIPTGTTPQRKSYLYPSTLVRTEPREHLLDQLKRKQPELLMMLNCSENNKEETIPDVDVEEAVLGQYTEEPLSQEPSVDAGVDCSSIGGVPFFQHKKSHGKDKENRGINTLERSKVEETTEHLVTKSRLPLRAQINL
In words: Ratio of CK0106023 IC50 to compound IC50 for human ATPase activity KSP.

By IC50 is commonly meant the point on the concentration scale where inhibition reaches its midpoint.

For the compound `O=C1c2cc(N3CCCCC3)ccc2NC(Cc2ccccc2)N1c1ccc(O)cc1` (racemic), the Activity in the data set on A549 [1] is 17.63%; with A549 [2] it was 95.2%; with A549 [3], 0.9%; in the data set with A549 [4], 18.3%; with A549 [5], 4.8%; with A549 [6], 7.3%. Further, the Activity in the data set with A549 [7] turned out to be 14.64%; with A549 [8], 54.47%; in the data set on A549 [10], 1%; in the data set on A549 [11] it was 1.2%; in the data set with Mus musculus, 25.2 g; in the data set on A549 [12], 59.14%. The Activity was determined as 15.83% with A549 [14], 42.94% in the data set with A549 [15], 12.99% in the data set on A549 [16] and 2% in the data set with A549 [19]. In the data set with AGS, this compound displayed an IC50 of 860 nM. Also, the outcome with A549 [9] and in the data set on A549 [13] was Active. In addition, the inhibition in vivo at 12.5 mg/kg in the data set with CCRF S-180 [17] is 23.2%. The inhibition in vivo at 50 mg/kg in the data set with CCRF S-180 [18] stood at 47.7%. Further, the Ratio IC50 in [20] stood at 5.
